{"source": "patent US7799805B2", "about": "“Piperidine carboxylic acid amide derivatives” (Actelion Pharmaceuticals Ltd., priority 2005, dated 2010)", "biological_target": "T1, recombinant human renin (Homo sapiens, UniProt P00797)", "T1 sequence (P00797 67-406)": "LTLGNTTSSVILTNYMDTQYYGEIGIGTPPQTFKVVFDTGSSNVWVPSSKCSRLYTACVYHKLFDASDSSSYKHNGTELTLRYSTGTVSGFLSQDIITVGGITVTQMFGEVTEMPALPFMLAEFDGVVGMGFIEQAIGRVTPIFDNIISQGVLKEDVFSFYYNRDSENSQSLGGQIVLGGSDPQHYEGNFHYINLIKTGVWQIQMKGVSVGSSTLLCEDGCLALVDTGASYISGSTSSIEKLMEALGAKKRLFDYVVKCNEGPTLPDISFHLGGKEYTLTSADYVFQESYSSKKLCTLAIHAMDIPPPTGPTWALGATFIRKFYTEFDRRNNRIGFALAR", "assay": "Primary renin inhibition assay: IC50 in buffer, 384 well MTP (AngI quantified by EIA)", "method": "Enzyme Immuno Assay (EIA) to Estimate AngI Accumulation and Renin Inhibition\n96 well MTP (MaxiSorp™, Nunc) were coated with 200 μl conjugate and blocked with 250 μl blocking solution as above, except that the blocking solution contained 3% BSA.\n1.3 AngI-EIA in 384 well MTP\nThe AngI (1-10)/BSA coated MTP were washed 3 times with wash buffer (PBS 1×, 0.01% Tween 20) and filled with 75 μl of primary antibody solution (anti-AngI antiserum, pre-diluted 1:10 in horse serum), diluted to a final concentration of 1:100,000 in assay buffer (PBS 1×, 1 mM EDTA, 0.1% BSA, pH 7.4). 5 μl of the renin reaction (or standards in assay buffer) (see below) were added to the primary antibody solution and the plates were incubated overnight at 4° C. After the incubation the plates were washed 3 times with wash buffer and incubated with secondary antibody [anti-rabbit IgG, linked to horseradish peroxidase (Amersham Bioscience, NA 934V), diluted 1:2,000 in wash buffer] for 2 h at rt. […]\nIn the second step, the accumulated AngI is measured by an immunological assay (enzyme immuno assay, EIA). […]\nTest compounds were dissolved and diluted in 100% DMSO and 2.5 μl added to the premix, then incubated at 37° C. for 3 h. At the end of the incubation period, 5 μl of the renin reaction (or standards in assay buffer) were transferred into EIA assays (as described above) and AngI produced by renin was quantified.", "data": [{"smiles": "O=C([C@H]1[C@H]2CNC[C@@H](C[C@H]1c1ccc(CCCOc3c(F)ccc(F)c3Cl)cc1)N2)N(Cc1cccc(Cl)c1Cl)C1CC1", "note": "(racemic) [Example 1, (rac.)-(1R*,5S*,6R*,7R*)-7-{4-[3-(2-Chloro-3,6-difluoro-phenoxy)-propyl]-phenyl}-3,9-diaza-bicyclo[3.3.1]nonane-6-carboxylic acid cyclopropyl-(2,3-dichloro-benzyl)-amide]", "values": [{"measurement": "IC50", "value": 0.65, "unit": "nM"}]}, {"smiles": "O=C([C@@H]1[C@@H](c2ccc(CCCOc3c(F)ccc(F)c3Cl)cc2)C[C@@H]2CNC[C@H]1N2)N(Cc1cccc(Cl)c1Cl)C1CC1", "note": "(racemic) [Example 2, (rac.)-(1R*,5S*,6R*,7S*)-7-{4-[3-(2-Chloro-3,6-difluoro-phenoxy)-propyl]-phenyl}-3,9-diaza-bicyclo[3.3.1]nonane-6-carboxylic acid cyclopropyl-(2,3-dichloro-benzyl)-amide]", "values": [{"measurement": "IC50", "value": 0.19, "unit": "nM"}]}]}
